The values below come from patent US6525062B2, “Method of treating pain using nalbuphine and opioid antagonists” (The Regents of the University of California, priority 2000, dated 2003).

Entries after “also recorded” stand apart in the source; their conditions may differ.

The subject of assay [1] is postoperative pain after removal of impacted third molars. Conditions: co-administration of 0.4 mg naloxone, human patients, cited from earlier work.
Assay [2] has as its system postoperative pain after removal of third molar teeth. The settings on record: nalbuphine alone, data as reported in previous study; cited from earlier work.
Assay [3] shares this test system.
Source text: This is a subjective measurement of pain, in which persons participating in the study are requested to indicate a level of pain at a certain time on a 10-cm line. The patient makes an indication on the line at a value from 0 to 10 indicating the level of pain felt at that time (where 0 indicates no pain and 10 indicates the worst pain imaginable to the patient). […] Tabulations were then made indicating increase or decrease in the pain level with time, with a negative value indicating a decrease in pain experienced by the patient and a positive value, an increase in such pain.
In this clinical trial, 88 patients underwent standardized surgery by the same oral surgeon for removal of third molar (“wisdom”) teeth, including at least one bony impacted mandibular third molar. Prior to surgery, patients received intravenous diazepam, nitrous oxide, and a local anesthetic (mepivacaine without vasoconstrictor to obtain a nerve block of short duration). […]
Baseline pain intensity was defined as the last VAS pain rating before administration of the test drug or drugs. VAS pain ratings were recorded at 20-minute intervals beginning ten minutes after administration of the test drug. The duration of the experiment, measured from the time of administration of the test drug, was three hours. […]
Assay [4] has as its system postoperative pain after removal of impacted wisdom teeth. Conditions: cited from earlier work.

As for `CN1CC[C@]23c4c5ccc(O)c4O[C@H]2[C@@H](O)C=C[C@H]3[C@H]1C5` [morphine], the “effect of co-administered naloxone on analgesia produced by morphine” value in assay [1] (8 mg morphine) is reported as “attenuated”.
Turning to `Oc1ccc2c3c1O[C@H]1[C@@H](O)CC[C@@]4(O)[C@@H](C2)N(CC2CCC2)CC[C@]314` [nalbuphine], the “gender x treatment interaction (ANOVA)” value in assay [2] is recorded as “significant gender x treatment interaction”. For the same molecule, the “pain relief (VAS), initial period” value in assay [3] (women, nalbuphine 2.5 mg alone vs naloxone 0.4 mg vs combination, nalbuphine-alone data from previous study) is listed as “slightly better pain relief in women than either naloxone at 0.4 mg or the combination”. For the same molecule, the “effect on postoperative pain” value in assay [4] (nalbuphine 5 mg alone, men) was “unexpectedly increased postoperative pain; also recorded: produced a marked increase in pain in men; also recorded: pain-enhancing effect; also recorded: had produced an increase in pain”. Further, the “pain modulation effect versus placebo” value in assay [4] (nalbuphine 5 mg alone, women) was “did not produce pain modulation effects in women that were any better than those achieved by administration of a dose of placebo”. In assay [4] (women versus men), the “sex difference of analgesic effects” value was “greater and more consistent in women than in men”.
In the case of `C=CCN1CC[C@]23c4c5ccc(O)c4O[C@H]2C(=O)CC[C@@]3(O)[C@H]1C5` [naloxone], the “gender differences in response (ANOVA)” value in assay [3] (Example 1, naloxone 0.4 mg alone or nalbuphine 5 mg + naloxone 0.4 mg, intravenous) is recorded as “lack of gender differences in response”.
As to `CC(C)=CCN1CCC2(C)c3cc(O)ccc3CC1C2C` (centres unmarked) [pentazocine], in assay [1] (60 mg pentazocine), the “effect of co-administered naloxone on analgesia produced by pentazocine” value is on record as “potentiated”.
